According to PubChem BioAssay (NCI):
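Assay format: 96-well plates, 48-hour exposure. At the TGI there is no net growth.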

Columns and labels:
P388/ADR leukemia = assay: NCI tumour cell line growth inhibition, 48 h
SN12K1 renal = assay: NCI tumour cell line growth inhibition, 48 h

| SMILES | TGI (P388/ADR leukemia) | TGI (SN12K1 renal) |
| --- | --- | --- |
| O=c1oc2cc(O)ccc2c2oc3cc(O)ccc3c12 | > 125 µM | > 112 µM |
| CN1c2c(nc(N)[nH]c2=O)NCC1CCNc1ccc(C(=O)NC(CCC(=O)O)C(=O)O)cc1 (stereo unspecified) | 1410 µM | 1810 µM |
| O=C1CCCCN1 | > 1120 µM | > 1120 µM |
